Values quoted from earlier work as cited in PMC11360046 (ACS Omega, 2024).

Test system: BRD4 BD2
Details: read-out: IC50 BRD4 BD2; I-58

With `CN1CCC(Nc2cccc(CN3c4ccccc4C=C4c5c(cccc53)C(=O)N4C)c2)CC1` [Compound I-58, 1-methyl-6-(3-((1-methylpiperidin-4-yl)amino)benzyl)-1,6-dihydro-2H-benzo[6,7]azepino[4,3,2-cd]isoindol-2-one] as the molecule, how does the IC50 read?
The IC50 was 1.88 nM.
